Source: ChEMBL document CHEMBL3822442, “Synthesis and Pharmacological Characterization of Novel Glucagon-like Peptide-2 (GLP-2) Analogues with Low Systemic Clearance” (J Med Chem, 2016)

Legend:
[1] = target: Glucagon-like peptide 1 receptor (Homo sapiens, UniProt P43220); experiment: Agonist activity at human GLP1R expressed in HEK293 cells after 5 hrs by luciferase reporter gene assay; format: cell-based
[2] = Systemic clearance in Sprague-Dawley rat at 0.2 mg/kg, iv through cassette dosing measured up to 300 mins by LC/MS/MS analysis; format: ADME, organism-based; conditions: in vivo
[3] = tested on: HEK293; experiment: Selectivity ratio of EC50 for human GLP1R expressed in HEK293 cells to EC50 for human GLP2R expressed in HEK293; format: cell-based
[4] = target: T1, Glucagon-like peptide 2 receptor (Homo sapiens, UniProt O95838); experiment: Agonist activity at human GLP2R expressed in HEK293 cells after 5 hrs by luciferase reporter gene assay; format: cell-based
T1 sequence (O95838 whole entry): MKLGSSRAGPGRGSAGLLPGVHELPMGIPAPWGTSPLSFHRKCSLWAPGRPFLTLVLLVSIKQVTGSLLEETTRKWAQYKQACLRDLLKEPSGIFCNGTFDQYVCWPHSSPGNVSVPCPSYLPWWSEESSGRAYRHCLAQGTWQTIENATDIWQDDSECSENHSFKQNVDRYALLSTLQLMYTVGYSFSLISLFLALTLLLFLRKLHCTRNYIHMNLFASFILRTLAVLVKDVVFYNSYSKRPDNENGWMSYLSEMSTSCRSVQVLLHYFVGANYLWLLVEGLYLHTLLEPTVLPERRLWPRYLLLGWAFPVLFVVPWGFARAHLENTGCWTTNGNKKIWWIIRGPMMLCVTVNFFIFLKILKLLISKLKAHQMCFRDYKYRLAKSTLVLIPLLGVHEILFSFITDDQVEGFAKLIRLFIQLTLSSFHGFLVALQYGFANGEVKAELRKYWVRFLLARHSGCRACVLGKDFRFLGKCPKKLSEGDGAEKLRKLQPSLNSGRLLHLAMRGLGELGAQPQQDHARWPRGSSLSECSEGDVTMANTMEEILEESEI

Sequence of Glucagon-like peptide 1 receptor (P43220 whole entry): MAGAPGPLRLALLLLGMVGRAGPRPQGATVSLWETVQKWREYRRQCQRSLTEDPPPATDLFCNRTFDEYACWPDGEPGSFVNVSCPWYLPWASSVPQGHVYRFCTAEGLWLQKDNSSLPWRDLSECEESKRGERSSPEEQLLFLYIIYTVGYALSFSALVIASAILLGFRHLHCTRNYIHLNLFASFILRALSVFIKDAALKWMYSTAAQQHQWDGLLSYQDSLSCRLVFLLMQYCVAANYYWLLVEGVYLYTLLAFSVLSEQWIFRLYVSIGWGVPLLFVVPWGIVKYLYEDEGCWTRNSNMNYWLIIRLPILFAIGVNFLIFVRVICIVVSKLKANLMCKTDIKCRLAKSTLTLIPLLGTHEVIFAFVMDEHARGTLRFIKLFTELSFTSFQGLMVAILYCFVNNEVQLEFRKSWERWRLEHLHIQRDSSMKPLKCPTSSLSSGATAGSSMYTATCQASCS

SMILES	EC50 [1] [nM]	clearance [2] [mL/min/kg]	Ratio EC50 [3]	EC50 [4] [nM]
CCCCC(NC(=O)[C@H](CCC(=O)O)NC(=O)[C@H](CC(=O)O)NC(=O)[C@H](CO)NC(=O)[C@H](Cc1ccccc1)NC(=O)[C@H](CO)NC(=O)CNC(=O)[C@H](CC(=O)O)NC(=O)CNC(=O)[C@@H](N)Cc1cnc[nH]1)C(=O)N[C@H](Cc1ccccc1)C(=O)N[C@H](C(=O)N[C@H](C(=O)N[C@@H](CC(C)C)C(=O)N[C@@H](CC(=O)O)C(=O)N[C@@H](Cc1ccccc1)C(=O)N[C@@H](CC(C)C)C(=O)N[C@@H](C)C(=O)N[C@@H](C)C(=O)N[C@@H](CCCNC(=N)N)C(=O)N[C@@H](CC(=O)O)C(=O)N[C@@H](Cc1ccccc1)C(=O)N[C@H](C(=O)N[C@@H](CC(N)=O)C(=O)N[C@@H](Cc1c[nH]c2ccccc12)C(=O)N[C@@H](CC(C)C)C(=O)N[C@H](C(=O)N[C@@H](CCC(N)=O)C(=O)N[C@H](C(=O)N[C@@H](CCCCN)C(=O)N[C@H](C(=O)N[C@H](C(=O)N[C@@H](CC(=O)O)C(=O)O)[C@@H](C)O)[C@@H](C)CC)[C@@H](C)O)[C@@H](C)CC)[C@@H](C)CC)[C@@H](C)CC)[C@@H](C)O (stereo partly specified)	> 1000	0.15	> 16000	0.06
CCCCC(NC(=O)[C@H](CCC(=O)O)NC(=O)[C@H](CC(=O)O)NC(=O)[C@H](CO)NC(=O)[C@H](Cc1ccccc1)NC(=O)[C@H](CO)NC(=O)CNC(=O)[C@H](CC(=O)O)NC(=O)CNC(=O)[C@@H](N)Cc1cnc[nH]1)C(=O)N[C@H](Cc1cccc(Cl)c1)C(=O)N[C@H](C(=O)N[C@H](C(=O)N[C@@H](CC(C)C)C(=O)N[C@@H](CC(=O)O)C(=O)N[C@@H](CC(C)C)C(=O)N[C@@H](CC(C)C)C(=O)N[C@@H](C)C(=O)N[C@@H](C)C(=O)N[C@@H](CCCNC(=N)N)C(=O)N[C@@H](CC(=O)O)C(=O)N[C@@H](Cc1ccccc1)C(=O)N[C@H](C(=O)N[C@@H](CC(N)=O)C(=O)N[C@@H](Cc1c[nH]c2ccccc12)C(=O)N[C@@H](CC(C)C)C(=O)N[C@H](C(=O)N[C@@H](CCC(N)=O)C(=O)N[C@H](C(=O)N[C@@H](CCCCN)C(=O)N[C@H](C(=O)N[C@H](C(=O)N[C@@H](CC(=O)O)C(N)=O)[C@@H](C)O)[C@@H](C)CC)[C@@H](C)O)[C@@H](C)CC)[C@@H](C)CC)[C@@H](C)CC)[C@@H](C)O (stereo partly specified)	> 1000	0.2	> 11000	0.09
CCCCC(NC(=O)[C@H](CCC(=O)O)NC(=O)[C@H](CC(=O)O)NC(=O)[C@H](CO)NC(=O)[C@H](Cc1ccccc1)NC(=O)[C@H](CO)NC(=O)CNC(=O)[C@H](CC(=O)O)NC(=O)CNC(=O)[C@@H](N)Cc1cnc[nH]1)C(=O)N[C@H](Cc1ccccc1)C(=O)N[C@H](C(=O)N[C@H](C(=O)N[C@@H](CC(C)C)C(=O)N[C@@H](CC(=O)O)C(=O)N[C@@H](Cc1ccc(O)cc1)C(=O)N[C@@H](CC(C)C)C(=O)N[C@@H](C)C(=O)N[C@@H](C)C(=O)N[C@@H](CCCNC(=N)N)C(=O)N[C@@H](CC(=O)O)C(=O)N[C@@H](Cc1ccccc1)C(=O)N[C@H](C(=O)N[C@@H](CC(N)=O)C(=O)N[C@@H](Cc1c[nH]c2ccccc12)C(=O)N[C@@H](CC(C)C)C(=O)N[C@H](C(=O)N[C@@H](CCC(N)=O)C(=O)N[C@H](C(=O)N[C@@H](CCCCN)C(N)=O)[C@@H](C)O)[C@@H](C)CC)[C@@H](C)CC)[C@@H](C)CC)[C@@H](C)O (stereo partly specified)	90	0.48	1200	0.07
CCCCC(NC(=O)[C@H](CCC(=O)O)NC(=O)[C@H](CC(=O)O)NC(=O)[C@H](CO)NC(=O)[C@H](Cc1ccccc1)NC(=O)[C@H](CO)NC(=O)CNC(=O)[C@H](CC(=O)O)NC(=O)CNC(=O)[C@@H](N)Cc1cnc[nH]1)C(=O)N[C@H](Cc1ccccc1)C(=O)N[C@H](C(=O)N[C@H](C(=O)N[C@@H](CC(C)C)C(=O)N[C@@H](CC(=O)O)C(=O)N[C@@H](Cc1ccccc1)C(=O)N[C@@H](CC(C)C)C(=O)N[C@@H](C)C(=O)N[C@@H](C)C(=O)N[C@@H](CCCNC(=N)N)C(=O)N[C@@H](CC(=O)O)C(=O)N[C@@H](Cc1ccccc1)C(=O)N[C@H](C(=O)N[C@@H](CC(N)=O)C(=O)N[C@@H](Cc1c[nH]c2ccccc12)C(=O)N[C@@H](CC(C)C)C(=O)N[C@H](C(=O)N[C@@H](CCC(N)=O)C(=O)N[C@H](C(=O)N[C@@H](CCCCN)C(=O)N[C@H](C(=O)N[C@H](C(=O)N[C@@H](CC(=O)O)C(N)=O)[C@@H](C)O)[C@@H](C)CC)[C@@H](C)O)[C@@H](C)CC)[C@@H](C)CC)[C@@H](C)CC)[C@@H](C)O (stereo partly specified)	> 1000	0.24	> 16000	0.06
CCCCC(NC(=O)[C@H](CCC(=O)O)NC(=O)[C@H](CC(=O)O)NC(=O)[C@H](CO)NC(=O)[C@H](Cc1ccccc1)NC(=O)[C@H](CO)NC(=O)CNC(=O)[C@H](CC(=O)O)NC(=O)CNC(=O)[C@@H](N)Cc1cnc[nH]1)C(=O)N[C@H](Cc1cccs1)C(=O)N[C@H](C(=O)N[C@H](C(=O)N[C@@H](CC(C)C)C(=O)N[C@@H](CC(=O)O)C(=O)N[C@@H](CC(C)C)C(=O)N[C@@H](CC(C)C)C(=O)N[C@@H](C)C(=O)N[C@@H](C)C(=O)N[C@@H](CCCNC(=N)N)C(=O)N[C@@H](CC(=O)O)C(=O)N[C@@H](Cc1ccccc1)C(=O)N[C@H](C(=O)N[C@@H](CC(N)=O)C(=O)N[C@@H](Cc1c[nH]c2ccccc12)C(=O)N[C@@H](CC(C)C)C(=O)N[C@H](C(=O)N[C@@H](CCC(N)=O)C(=O)N[C@H](C(=O)N[C@@H](CCCCN)C(N)=O)[C@@H](C)O)[C@@H](C)CC)[C@@H](C)CC)[C@@H](C)CC)[C@@H](C)O (stereo partly specified)	> 1000	0.33	> 12000	0.08
CCCCC(NC(=O)[C@H](CCC(=O)O)NC(=O)[C@H](CC(=O)O)NC(=O)[C@H](CO)NC(=O)[C@H](Cc1ccccc1)NC(=O)[C@H](CO)NC(=O)CNC(=O)[C@H](CC(=O)O)NC(=O)CNC(=O)[C@@H](N)Cc1cnc[nH]1)C(=O)N[C@H](Cc1cccs1)C(=O)N[C@H](C(=O)N[C@H](C(=O)N[C@@H](CC(C)C)C(=O)N[C@@H](CC(=O)O)C(=O)N[C@@H](CC(C)C)C(=O)N[C@@H](CC(C)C)C(=O)N[C@@H](C)C(=O)N[C@H](C(=O)N[C@@H](CCCNC(=N)N)C(=O)N[C@@H](CC(=O)O)C(=O)N[C@@H](Cc1ccccc1)C(=O)N[C@H](C(=O)N[C@@H](CC(N)=O)C(=O)N[C@@H](Cc1c[nH]c2ccccc12)C(=O)N[C@@H](CC(C)C)C(=O)N[C@H](C(=O)N[C@@H](CCC(N)=O)C(=O)N[C@H](C(=O)N[C@@H](CCCCN)C(=O)N[C@H](C(=O)N[C@H](C(=O)N[C@@H](CC(=O)O)C(N)=O)[C@@H](C)O)[C@@H](C)CC)[C@@H](C)O)[C@@H](C)CC)[C@@H](C)CC)[C@@H](C)O)[C@@H](C)CC)[C@@H](C)O (stereo partly specified)	> 1000	0.28	> 20000	0.05
CCCCC(NC(=O)[C@H](CCC(=O)O)NC(=O)[C@H](CC(=O)O)NC(=O)[C@H](CO)NC(=O)[C@H](Cc1ccccc1)NC(=O)[C@H](CO)NC(=O)CNC(=O)[C@H](CC(=O)O)NC(=O)CNC(=O)[C@@H](N)Cc1cnc[nH]1)C(=O)N[C@H](Cc1ccccc1)C(=O)N[C@H](C(=O)N[C@H](C(=O)N[C@@H](CC(C)C)C(=O)N[C@@H](CC(=O)O)C(=O)N[C@@H](CC(C)C)C(=O)N[C@@H](CC(C)C)C(=O)N[C@@H](C)C(=O)N[C@H](C(=O)N[C@@H](CCCNC(=N)N)C(=O)N[C@@H](CC(=O)O)C(=O)N[C@@H](Cc1ccccc1)C(=O)N[C@H](C(=O)N[C@@H](CC(N)=O)C(=O)N[C@@H](Cc1c[nH]c2ccccc12)C(=O)N[C@@H](CC(C)C)C(=O)N[C@H](C(=O)N[C@@H](CCC(N)=O)C(=O)N[C@H](C(=O)N[C@@H](CCCCN)C(N)=O)[C@@H](C)O)[C@@H](C)CC)[C@@H](C)CC)[C@@H](C)O)[C@@H](C)CC)[C@@H](C)O (stereo partly specified)	130	0.49	3200	0.04
CCCC[C@H](NC(=O)[C@H](CCC(=O)O)NC(=O)[C@H](CC(=O)O)NC(=O)[C@H](CO)NC(=O)[C@H](Cc1ccccc1)NC(=O)[C@H](CO)NC(=O)CNC(=O)[C@H](CC(=O)O)NC(=O)CNC(=O)[C@@H](N)Cc1cnc[nH]1)C(=O)N[C@@H](CC(N)=O)C(=O)N[C@H](C(=O)N[C@H](C(=O)N[C@@H](CC(C)C)C(=O)N[C@@H](CC(=O)O)C(=O)N[C@@H](Cc1ccc(Cl)cc1)C(=O)N[C@@H](CC(C)C)C(=O)N[C@@H](C)C(=O)N[C@@H](C)C(=O)N[C@@H](CCCNC(=N)N)C(=O)N[C@@H](CC(=O)O)C(=O)N[C@@H](Cc1ccccc1)C(=O)N[C@H](C(=O)N[C@@H](CC(N)=O)C(=O)N[C@@H](Cc1c[nH]c2ccccc12)C(=O)N[C@@H](CC(C)C)C(=O)N[C@H](C(=O)N[C@@H](CCC(N)=O)C(=O)N[C@H](C(=O)N[C@@H](CCCCN)C(N)=O)[C@@H](C)O)[C@@H](C)CC)[C@@H](C)CC)[C@@H](C)CC)[C@@H](C)O	> 1000	0.67		0.22
